Assays:
Format in all cases: biochemical
[1] = molecular target: T1, cathepsin B (Homo sapiens, UniProt P07858); experiment: Cathepsin B enzyme inhibition in vitro (kinetic fluorescence assay); conditions: Ki(cathepsin B)/Ki(calpain) ratio
T1 construct: cathepsin B—isolated from human liver; purchased Calbiochem 219362; host or cells: human liver (tissue isolate)
Method: (§1) Testing for blockade of the corresponding enzymic activities was carried out by means of kinetic fluorescence assays (excitation 390 nm, emission 460 nm).
(§2) Apparent Ki values were calculated from the experimentally determined IC50 values by the Cheng-Prussoff relation assuming a reversible competitive enzyme inhibition. The Km values of the substrates used under the assay conditions indicated above were: 90 μM (Z-Phe-Arg-AMC, cathepsin B), 10 μM (Z-Gly-Pro-Arg-AMC, cathepsin K), 2 μM (Z-Phe-Arg-AMC, cathepsin L), and 30 μM (Z-Val-Val-Arg-AMC, cathepsin S).
(§3) The indicated Ki values are averages of the inhibition constants calculated on the basis of 2 to 4 independent dose-effect plots.
(§4) • 1. Calpain I: • 20 nM calpain-I—isolated from human erythrocytes (Calbiochem #208713), 100 μM Suc-Leu-Tyr-AMC (Bachem #1-1355) as substrate in buffer with 62 mM imidazole, 0.3 mM CaCl2, 0.10% CHAPS, 0.05% BSA, 1 mM DTT at pH 7.3 and room temperature. • 2. Cathepsin B: • 0.25 nM cathepsin B—isolated from human liver (Calbiochem #219362), 100 μM Z-Phe-Arg-AMC (Bachem #1-1160) as substrate 50 mM MES, 2 mM EDTA, 0.05% Brij 35, 2.5 mM L-cysteine, pH 6.0, room temperature. • 3. Cathepsin K: • 3 nM cathepsin K—activated from recombinant human procathepsin K from E. coli (Calbiochem #342001), 10 μM Z-Gly-Pro-Arg-AMC (Biomol #P-142) as substrate in 50 mM MES, 2 mM EDTA, 0.05% Brij 35, 2.5 mM L-cysteine, pH 6.0, room temperature. • 4. Cathepsin L: • 1 nM cathepsin L—isolated from human liver (Calbiochem #219402), 2 μM Z-Phe-Arg-AMC (Bachem #1-1160) as substrate in 50 mM MES, 2 mM EDTA, 0.05% Brij 35, 2.5 mM L-cysteine, pH 6.0, room temperature. • 5. Cathepsin S: • 0.5 nM recombinant human cathepsin S from E. coli (Calbiochem #219343), 20 μM Z-Val-Val-Arg-AMC (Bachem #1-1540) as substrate in 50 mM MES, 2 mM EDTA, 0.05% Brij 35, 2.5 mM L-cysteine, pH 6.0, room temperature.

[2] = molecular target: T2, cathepsin L (Homo sapiens, UniProt P07711); experiment: Cathepsin L enzyme inhibition in vitro (kinetic fluorescence assay); conditions: Ki(cathepsin L)/Ki(calpain) ratio
T2 construct: cathepsin L—isolated from human liver; purchased Calbiochem 219402; host or cells: human liver (tissue isolate)
Method: as §1, §2, §3, §4

[3] = molecular target: T3, cathepsin S (Homo sapiens, UniProt P25774); experiment: Cathepsin S enzyme inhibition in vitro (kinetic fluorescence assay); conditions: Ki(cathepsin S)/Ki(calpain) ratio
T3 construct: purchased Calbiochem 219343; host or cells: E. coli
Method: as §1, §2, §3, §4

T2 sequence (P07711 114-333): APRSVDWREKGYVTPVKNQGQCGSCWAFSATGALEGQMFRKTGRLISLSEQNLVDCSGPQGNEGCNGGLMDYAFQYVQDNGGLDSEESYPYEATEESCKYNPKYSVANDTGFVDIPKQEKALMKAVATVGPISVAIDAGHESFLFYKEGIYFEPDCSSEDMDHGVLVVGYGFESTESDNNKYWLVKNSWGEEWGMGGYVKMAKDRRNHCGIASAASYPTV
T3 sequence (P25774 115-331): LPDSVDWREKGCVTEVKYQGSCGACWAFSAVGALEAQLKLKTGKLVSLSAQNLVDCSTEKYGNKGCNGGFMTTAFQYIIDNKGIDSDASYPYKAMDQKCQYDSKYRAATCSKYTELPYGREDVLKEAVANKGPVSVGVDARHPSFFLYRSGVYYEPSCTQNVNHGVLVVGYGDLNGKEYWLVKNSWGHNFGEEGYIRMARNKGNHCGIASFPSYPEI

SMILES: Cc1cn(-c2ncccc2C(=O)NC(Cc2ccccc2)C(=O)C(N)=O)nc1-c1ccccc1 (stereo not shown) [Example 84, N-(3-Amino-1-benzyl-2,3-dioxopropyl)-2-(4-methyl-3-phenyl-1H-pyrazol-1-yl)nicotinamide]
- Sel cat. B [1]: + (+ means 10≦Ki(cathepsin B)/Ki(calpain)<30)
- Sel cat. L [2]: ++ (++ means a Ki(cathepsin L)/Ki(calpain) ratio of ≧50)
- Sel cat. S [3]: ++ (++ means a Ki(cathepsin S)/Ki(calpain) ratio of ≧100)

SMILES: NC(=O)C(=O)C(Cc1cccs1)NC(=O)c1cccnc1-n1ccc(-c2ccc(F)cc2)n1 (stereo not shown) [Example 57, N-[3-Amino-2,3-dioxo-1-(2-thienylmethyl)propyl]-2-[3-(4-fluorophenyl)-1H-pyrazol-1-yl]nicotinamide]
- Sel cat. L [2]: ++ (++ means a Ki(cathepsin L)/Ki(calpain) ratio of ≧50)
- Sel cat. S [3]: ++ (++ means a Ki(cathepsin S)/Ki(calpain) ratio of ≧100)

SMILES: CCCCC(NC(=O)c1cccnc1-n1ccc(-c2ccc(OC)cc2)n1)C(=O)C(N)=O (stereo not shown) [Example 49, N-{1-[Amino(oxo)acetyl]pentyl}-2-[3-(4-methoxyphenyl)-1H-pyrazol-1-yl]nicotinamide]
- Sel cat. L [2]: + (+ means 30≦Ki(cathepsin L)/Ki(calpain)<50)
- Sel cat. S [3]: ++ (++ means a Ki(cathepsin S)/Ki(calpain) ratio of ≧100)

SMILES: CCCCC(NC(=O)c1cccnc1-n1ccc(-c2cccc(N3CCOCC3)c2)n1)C(=O)C(N)=O (stereo not shown) [Example 59, N-{1-[Amino(oxo)acetyl]pentyl}-2-[3-(3-morpholin-4-ylphenyl)-1H-pyrazol-1-yl]nicotinamide]
- Sel cat. L [2]: ++ (++ means a Ki(cathepsin L)/Ki(calpain) ratio of ≧50)
- Sel cat. S [3]: + (+ means 50≦Ki(cathepsin S)/Ki(calpain)<100)

SMILES: CCCCC(NC(=O)c1cc(Cl)cnc1-n1ccc(-c2ccccc2)n1)C(=O)C(N)=O (stereo not shown) [Example 28, N-{1-[Amino(oxo)acetyl]pentyl}-5-chloro-2-(3-phenyl-1H-pyrazol-1-yl)nicotinamide]
- Sel cat. B [1]: + (+ means 10≦Ki(cathepsin B)/Ki(calpain)<30)

SMILES: Cl.NC(=O)C(=O)C(Cc1ccccc1)NC(=O)c1cccnc1-n1cnc(-c2ccc(C(F)(F)F)cc2)c1 (stereo not shown) [Example 18, N-(3-Amino-1-benzyl-2,3-dioxopropyl)-2-{4-[4-(trifluoromethyl)phenyl]-1H-imidazol-1-yl}nicotinamide hydrochloride]
- Sel cat. L [2]: + (+ means 30≦Ki(cathepsin L)/Ki(calpain)<50)
- Sel cat. S [3]: ++ (++ means a Ki(cathepsin S)/Ki(calpain) ratio of ≧100)

SMILES: CCCCC(NC(=O)c1cccnc1-n1cnc(-c2ccc(C(F)(F)F)cc2)c1)C(=O)C(N)=O.Cl (stereo not shown) [Example 17, N-{1-[Amino(oxo)acetyl]pentyl}-2-{4-[4-(trifluoromethyl)phenyl]-1H-imidazol-1-yl}nicotinamide hydrochloride]
- Sel cat. L [2]: ++ (++ means a Ki(cathepsin L)/Ki(calpain) ratio of ≧50)
- Sel cat. S [3]: + (+ means 50≦Ki(cathepsin S)/Ki(calpain)<100)

SMILES: COc1ccc(-c2cn(-c3ncccc3C(=O)NC(Cc3ccccc3)C(=O)C(N)=O)cn2)cc1 (stereo not shown) [Example 13, N-(3-Amino-1-benzyl-2,3-dioxopropyl)-2-[4-(4-methoxyphenyl)-1H-imidazol-1-yl]nicotinamide]
- Sel cat. L [2]: ++ (++ means a Ki(cathepsin L)/Ki(calpain) ratio of ≧50)
- Sel cat. S [3]: + (+ means 50≦Ki(cathepsin S)/Ki(calpain)<100)

SMILES: NC(=O)C(=O)C(Cc1ccccc1)NC(=O)c1cccnc1-n1ccc(-c2ccc(N3CCCCC3)cc2)n1 (stereo not shown) [Example 64, N-(3-Amino-1-benzyl-2,3-dioxopropyl)-2-[3-(4-piperidin-1-ylphenyl)-1H-pyrazol-1-yl]nicotinamide]
- Sel cat. B [1]: + (+ means 10≦Ki(cathepsin B)/Ki(calpain)<30)
- Sel cat. S [3]: ++ (++ means a Ki(cathepsin S)/Ki(calpain) ratio of ≧100)

SMILES: CC(C)CC(NC(=O)c1cc(Cl)cnc1-n1ccc(-c2ccccc2)n1)C(=O)C(N)=O (stereo not shown) [Example 32, N-{1-[Amino(oxo)acetyl]-3-methylbutyl}-5-chloro-2-(3-phenyl-1H-pyrazol-1-yl)nicotinamide]
- Sel cat. B [1]: + (+ means 10≦Ki(cathepsin B)/Ki(calpain)<30)

SMILES: NC(=O)C(=O)C(Cc1ccccc1)NC(=O)c1cccnc1-n1ccc(-c2ccc(Cl)cc2)n1 (stereo not shown) [Example 39, N-(3-Amino-1-benzyl-2,3-dioxopropyl)-2-[3-(4-chlorophenyl)-1H-pyrazol-1-yl]nicotinamide]
- Sel cat. L [2]: ++ (++ means a Ki(cathepsin L)/Ki(calpain) ratio of ≧50)
- Sel cat. S [3]: ++ (++ means a Ki(cathepsin S)/Ki(calpain) ratio of ≧100)

SMILES: NC(=O)C(=O)C(Cc1ccccc1)NC(=O)c1cccnc1-n1cc(COc2ccccc2)c(-c2ccc(F)cc2)n1 (stereo not shown) [Example 179, N-[3-Amino-2,3-dioxo-1-(phenylmethyl)propyl]-2-{3-(4-fluorophenyl)-4-[(phenyloxy)methyl]-1H-pyrazol-1-yl}pyridine-3-carboxamide]
- Sel cat. L [2]: + (+ means 30≦Ki(cathepsin L)/Ki(calpain)<50)
- Sel cat. S [3]: ++ (++ means a Ki(cathepsin S)/Ki(calpain) ratio of ≧100)

SMILES: N#Cc1ccc(-c2ccn(-c3ncccc3C(=O)NC(Cc3ccccc3)C(=O)C(N)=O)n2)cc1 (stereo not shown) [Example 62, N-(3-Amino-1-benzyl-2,3-dioxopropyl)-2-[3-(4-cyanophenyl)-1H-pyrazol-1-yl]nicotinamide]
- Sel cat. L [2]: ++ (++ means a Ki(cathepsin L)/Ki(calpain) ratio of ≧50)
- Sel cat. S [3]: ++ (++ means a Ki(cathepsin S)/Ki(calpain) ratio of ≧100)

SMILES: CCCCC(NC(=O)c1cccnc1-n1ccc(-c2ccc(N3CCOCC3)cc2)n1)C(=O)C(N)=O (stereo not shown) [Example 33, N-{1-[Amino(oxo)acetyl]pentyl}-2-[3-(4-morpholin-4-ylphenyl)-1H-pyrazol-1-yl]nicotinamide]
- Sel cat. B [1]: + (+ means 10≦Ki(cathepsin B)/Ki(calpain)<30)
- Sel cat. S [3]: + (+ means 50≦Ki(cathepsin S)/Ki(calpain)<100)

SMILES: CS(=O)(=O)NCc1cn(-c2ncccc2C(=O)NC(Cc2ccccc2)C(=O)C(N)=O)nc1-c1ccc(F)cc1 (stereo not shown) [Example 187, N-[3-Amino-2,3-dioxo-1-(phenylmethyl)propyl]-2-[3-(4-fluorophenyl)-4-{[(methylsulfonyl)amino]methyl}-1H-pyrazol-1-yl]pyridine-3-carboxamide]
- Sel cat. L [2]: + (+ means 30≦Ki(cathepsin L)/Ki(calpain)<50)
- Sel cat. S [3]: ++ (++ means a Ki(cathepsin S)/Ki(calpain) ratio of ≧100)

SMILES: Cc1cc(-c2ccccc2)nn1-c1ncccc1C(=O)NC(Cc1ccccc1)C(=O)C(N)=O (stereo not shown) [Example 61, N-(3-Amino-1-benzyl-2,3-dioxopropyl)-2-(5-methyl-3-phenyl-1H-pyrazol-1-yl)nicotinamide]
- Sel cat. B [1]: + (+ means 10≦Ki(cathepsin B)/Ki(calpain)<30)
- Sel cat. S [3]: ++ (++ means a Ki(cathepsin S)/Ki(calpain) ratio of ≧100)

SMILES: NC(=O)C(=O)C(Cc1ccccc1)NC(=O)c1cccnc1-n1cc2c(n1)-c1ccccc1OCC2 (stereo not shown) [Example 141, N-[3-Amino-2,3-dioxo-1-(phenylmethyl)propyl]-2-(4,5-dihydro-2H-Mbenzoxepino[5,4-c]pyrazol-2-yl)pyridine-3-carboxamide]
- Sel cat. L [2]: ++ (++ means a Ki(cathepsin L)/Ki(calpain) ratio of ≧50)
- Sel cat. S [3]: ++ (++ means a Ki(cathepsin S)/Ki(calpain) ratio of ≧100)

SMILES: CCCCC(NC(=O)c1cccnc1-n1cnc(-c2ccc(N3CCOCC3)cc2)c1)C(=O)C(N)=O.Cl (stereo not shown) [Example 15, N-{1-[Amino(oxo)acetyl]pentyl}-2-[4-(4-morpholin-4-ylphenyl)-1H-imidazol-1-yl]nicotinamide hydrochloride]
- Sel cat. L [2]: ++ (++ means a Ki(cathepsin L)/Ki(calpain) ratio of ≧50)
- Sel cat. S [3]: + (+ means 50≦Ki(cathepsin S)/Ki(calpain)<100)

SMILES: NC(=O)C(=O)C(Cc1ccccc1)NC(=O)c1cccnc1-n1cnc(-c2ccc(Cl)cc2)c1 (stereo not shown) [Example 9, N-(3-Amino-1-benzyl-2,3-dioxopropyl)-2-[4-(4-chlorophenyl)-1H-imidazol-1-yl]nicotinamide]
- Sel cat. L [2]: + (+ means 30≦Ki(cathepsin L)/Ki(calpain)<50)
- Sel cat. S [3]: ++ (++ means a Ki(cathepsin S)/Ki(calpain) ratio of ≧100)
